Assays:
Assay type in all cases: cell-based
[1] = system: Cp + To + Ta + Cs + Ck + Nc; assay: Algal efficacy testing, modified ASTM 5589, paint film (Diclosulam study); details: for % inhibition: at the total conc given for the same sample; for Total conc: end-point concentration in paint used for SI
Experimental: (§1) Sample preparation: A single or blend of biocides was post added into white acrylic latex paint free of biocides to give a maximum total active ingredient/s concentration tested. This paint was then diluted with a biocide free acrylic latex paint to give targeted concentrations for the testing. Depending on the type of biocide blends tested, the total biocides concentrations varies from 200 to 5000 ppm. After biocides addition or dilution, each sample was hand mixed for at least a minute until uniformity is achieved. Each of the paint samples as well as a control sample (containing no biocide) were used to prepare films on black plastic-vinyl chloride/acetate copolymer panels (LENETA, Mahwah, N.J.) using a 3 mil (0.0762 mm) bird bar applicator. The panels were thoroughly dried for at least 2 days avoiding direct exposure to sunlight. Square discs (0.5 inch; 1.27 cm^2) were cut out from each panel and were used as the substrate for fungal and algal efficacy tests. This sample size allowed for an agar border when the sample disc was placed into the well of the test plate. Each sample was tested in duplicate
(§2) The appropriate media (BOLD'S 3N for Chlorophytes, BG-11 for Cyanobacteria, and PDA for fungi) were used to support microbial growth. The test plates were maintained at room temp (25° C.-26° C.), in a cycled light-dark environment, for four weeks for algae. Plates for fungal challenge tests were maintained at 30 C for four weeks. At the end of the incubation period the samples were scored for percent area covered by visible microbial growth.
(§3) ASTM 5589 is a standard accelerated test method for determining resistance of various coatings (including paints) to algal defacement. To accommodate for high-throughput screening, this method was scaled down from petri plates to 6-well plates. A single coupon was placed with a pair of sterile forceps at the center of the agar plug (on top) with the painted surface facing upwards. Algal inoculums were prepared by mixing equal concentrations (1×10^6 cfu/ml) and equal volumes (depending on number of samples to be inoculated) of like growing organisms.
(§4) In Diclosulam+various IT synergy study, only two pools of mixed algae were prepared; Gloeocapsa sp. and Oscillatoria sp. grown on BG-11 media and Chlorella sp., Chlorella kessleri, Nostoc commune, Trentepohlia aurea, Tretepohlia odorata, and Calotrix parientina grown on Bold media
Each well that contains a tested coupon was inoculated with 400 μl of organism mixture (1×10^6 cfu/ml) making sure that the whole surface (paint film as well as the agar surrounding it) was evenly covered. […] The total area covered was evaluated at the end of each week according to percent area covered in 5% increments.
(§5) The SI is calculated based on F. C. […]

[2] = system: Gloeocapsa sp. and Oscillatoria sp. (Gs + Os); assay: Algal efficacy testing, modified ASTM 5589, paint film; details: for % inhibition: at the total conc given for the same sample; for Total conc: end-point concentration in paint used for SI
Experimental: as §1, §2, §3
(§6) In Flumetsulam+various IT synergy study, three pool of mixed algae were prepared as the test inoculum, Gloeocapsa sp. and Oscillatoria sp. a mix of cyanobacteria grown on BG-11 media; Chlorella sp., Chlorella kessleri, and Nostoc commune are unicellular chlorphytes that were mixed and grown on Bold media; Trentepohlia aurea, Tretepohlia odorata, and Calotrix parientina are filamentous algae that were mixed and grown on Bold media.
as §4
(§7) Each well that contains a tested coupon was inoculated with 400 μl of organism mixture (1×10^6 cfu/ml) making sure that the whole surface (paint film as well as the agar surrounding it) was evenly covered. The plates were incubated at room temp (25° C.-26° C.) with cyclic exposure to light (OTT-Lite model # OTL4012P, 40 Watt, 26 KLumen) and dark phases, for a period of four weeks. The total area covered was evaluated at the end of each week according to percent area covered in 5% increments.
(§8) The SI is calculated based on F. C. Kull et.

[3] = system: Aa + Tv + An + Pf + Ap + Ch; assay: Fungal efficacy testing, modified ASTM 5590, paint film (Diclosulam study, single fungal pool); details: for % inhibition: at the total conc given for the same sample; for Total conc: end-point concentration in paint used for SI
Experimental: as §1, §2
ASTM 5590 is a standard accelerated test method for determining resistance of various coatings (including paints) to fungal defacement. To accommodate for high-throughput screening, this method was scaled down from petri plates to 6-well plates. To set up the test, an agar plug was placed at the bottom of each well of the sterile 6-well plate. A single coupon was placed with a pair of sterile forceps at the center of the agar plug (on top) with the painted surface facing upwards. Fungal inoculums were prepared by mixing equal concentrations (1×10^6 cfu/ml) and equal volumes (depending on number of samples to be tested) of like growing organisms. For Flumetsulam+various IT synergy study, three pools of mixed fungi were prepared as the test inoculum. Cladosporium herbarum was mixed with Aureobasidium pullulans; Aspergillus niger was mixed with Penicillium funiculosum and Alternaria alternata was mixed with Trichoderma viride. For Diclosulam+various IT synergy study, all above fungi were mixed as a single pool. […] The total percent area covered was evaluated and recorded at the end of each week after the 2nd week and recorded in increments of 5%.
as §5

[4] = system: Trentepohlia aurea, Tretepohlia odorata, and Calotrix parientina (Cp + To + Ta); assay: Algal efficacy testing, modified ASTM 5589, paint film (Flumetsulam study); details: for % inhibition: at the total conc given for the same sample; for Total conc: end-point concentration in paint used for SI, four weeks
Experimental: as §1, §2, §3, §6, §7, §8

[5] = system: Chlorella sp., Chlorella kessleri, and Nostoc commune (Cs + Ck + Nc); assay: as above; details: for % inhibition: at the total conc given for the same sample; for Total conc: end-point concentration in paint used for SI, four weeks
Experimental: as §1, §2, §3, §6, §7, §8

[6] = system: Alternaria alternata mixed with Trichoderma viride (AaTv); assay: Fungal efficacy testing, modified ASTM 5590, paint film (Flumetsulam study); details: for % inhibition: at the total conc given for the same sample; for Total conc: end-point concentration in paint used for SI, four weeks, 30 C
Experimental: as §1, §2
(§9) ASTM 5590 is a standard accelerated test method for determining resistance of various coatings (including paints) to fungal defacement. To accommodate for high-throughput screening, this method was scaled down from petri plates to 6-well plates. To set up the test, an agar plug was placed at the bottom of each well of the sterile 6-well plate. A single coupon was placed with a pair of sterile forceps at the center of the agar plug (on top) with the painted surface facing upwards. Fungal inoculums were prepared by mixing equal concentrations (1×10^6 cfu/ml) and equal volumes (depending on number of samples to be tested) of like growing organisms. For Flumetsulam+various IT synergy study, three pools of mixed fungi were prepared as the test inoculum. Cladosporium herbarum was mixed with Aureobasidium pullulans; Aspergillus niger was mixed with Penicillium funiculosum and Alternaria alternata was mixed with Trichoderma viride. For Diclosulam+various IT synergy study, all above fungi were mixed as a single pool. Each well was inoculated with 400 μl of organism mixture (1×10^6 cfu/ml) making sure that the whole surface (paint film as well as the agar surrounding it) was evenly covered. The plates were incubated at 30° C. in presence of moisture, for a period of four weeks. The total percent area covered was evaluated and recorded at the end of each week after the 2nd week and recorded in increments of 5%.
as §8

[7] = system: Aspergillus niger mixed with Penicillium funiculosum (AnPf); assay: as above; details: for % inhibition: at the total conc given for the same sample; for Total conc: end-point concentration in paint used for SI, four weeks, 30 C
Experimental: as §1, §2, §9, §8

[8] = system: Cladosporium herbarum mixed with Aureobasidium pullulans (ApCh); assay: as above; details: for % inhibition: at the total conc given for the same sample; for Total conc: end-point concentration in paint used for SI, four weeks, 30 C
Experimental: as §1, §2, §9, §8

| SMILES | % inhibition [1] | Total conc [1] | % inhibition ([2]; Diclosulam study) | Total conc ([2]; Diclosulam study) | % inhibition [3] | Total conc [3] | % inhibition [4] | Total conc [4] | % inhibition [5] | Total conc [5] | % inhibition ([2]; Flumetsulam study) | Total conc ([2]; Flumetsulam study, four weeks) | % inhibition [6] | Total conc [6] | % inhibition [7] | Total conc [7] | % inhibition [8] | Total conc [8] |
| --- | --- | --- | --- | --- | --- | --- | --- | --- | --- | --- | --- | --- | --- | --- | --- | --- | --- | --- |
| CCOc1nc(F)cc2nc(S(=O)(=O)Nc3c(Cl)cccc3Cl)nn12 [Diclosulam, N-(2,6-dichlorophenyl)-5-ethoxy-7-fluoro[1,2,4]triazolo[1,5-c]pyrimidine-2-sulfonamide] | 100% | 1750 ppm | 90% | 875 ppm | 0% | 3500 ppm | – | – | – | – | – | – | – | – | – | – | – | – |
| Cc1ccn2nc(S(=O)(=O)Nc3c(F)cccc3F)nc2n1 [Flumetsulam, N-(2,6-difluorophenyl)-5-methyl[1,2,4]triazolo[1,5-a]pyrimidine-2-sulfonamide] | – | – | – | – | – | – | 75% | 1750 ppm | 100% | 2625 ppm | 90% | 2625 ppm | 0% | 3500 ppm | 90% | 1750 ppm | 50% | 3500 ppm |
| c1ccc2[nH]c(-c3cscn3)nc2c1 [TBZ, thiabendazole] | 100% | 1250 ppm | 85% | 1250 ppm | 60% | 625 ppm | 90% | 3750 ppm | 100% | 2500 ppm | 85% | 3750 ppm | 100% | 625 ppm | 100% | 625 ppm | 100% | 625 ppm |
